Experimental data taken from patent publication US8795738B2, “Use of arsenic for cancer therapy protection” (Board of Regents of the University of Texas System, priority 2009, dated 2014).
“Also recorded” adds a separate entry of the source. Where a name gives a salt, the structure may show the parent alone. Read-outs that look alike come from different tables or passages of the source. *1 amine or outer side, *2 acyl side, *3 side chain or, on linkers, in order; H or OH if unused. Where a SMILES comes first, the peptide text is derived from it. Bridges are numbered along the chain shown (N, C = ends). Roman numbers before positions name the chains, in order. [ ]: non-standard residue; d: D form. Actinocin(9to1) = Cc1c2oc3c(C)ccc(C(=O)[*:1])c3nc-2c(C(=O)[*:2])c(N)c1=O; NMeV = CN[C@H](C(=O)O)C(C)C; Sar = CNCC(=O)O

Legend:
[1] = system: Human lung carcinoma cells A549; assay type: in vivo, mice
[2] = system: Human breast carcinoma cells, MDA-MB-231; assay type: in vivo, mice
[3] = system: Human colon carcinoma cells, SW-480; assay type: in vivo, mice
[4] = mouse, in vivo
[5] = mouse, in vivo; remark: listed apart in the source
[6] = cited from earlier work; for absorption: oral / gastrointestinal absorption; for peak concentration in plasma: usual clinical doses
[7] = cited from earlier work
[8] = physiological pH; cited from earlier work
[9] = cited from earlier work; remark: listed apart in the source
[10] = cited from earlier work; remark: listed apart in the source
p53 [11] = assay type: cell-based
[12] = set-up: species or system mice; settings: mouse, in vivo
MCF10A cells = assay type: cell-based, human
[13] = system: peripheral blood lymphocytes; set-up: species or system mice; settings: mouse, in vivo
p53 [14] = test: C57BL/6 WT and p53 R172P knock-in mice, protection by arsenic (body weight); assay type: in vivo; settings: p53 mutant (R172P knock-in) mice, in contrast with wild type littermates
Description: Mutant p53 expressing mouse model was employed to test whether the observed protective effect of arsenic was mediated by p53 inactivation. Black C57BL/6 WT or p53 R172P knock in mice at age of 4-6 weeks old) were obtained from Dr. Lazona. Mice were housed under pathogen-free conditions and maintained on a 12 h light/12 h dark cycle, with food and water supplied ad libitum., mice were randomized into following groups; control; X-ray irradiation only; arsenite and X-ray irradiation. For arsenite pretreatment, mice were fed with water containing sodium arsenite (as 1.0 mg/L) for 3 days. Mice were then irradiated with 2Gy TBI daily for one week. Body weight was monitored throughout the period of the experiment. The numbers are means±SE from two independent experiments with total of 10 mice per group.

[15] = mouse, in vivo; remark: listed apart in the source
[16] = mouse, in vivo; remark: listed apart in the source
[17] = system: human adult foreskin keratinocytes; settings: cited from earlier work
[18] = 5FU 30 mg/kg i.v. daily for one week

## O=c1[nH]cc(F)c(=O)[nH]1 [5FU, Fluorouracil]
[1]; 5FU 30 mg/kg intravenous daily for one week
  tumor volume: marked tumor regression
[2]; [18]
  tumor volume: marked tumor regression
[3]; [18]
  tumor volume: marked tumor regression
[4]
  damage to small intestine and bone marrow cells: severe damages to small intestine and bone marrow cells
[5]
  bone marrow cellularity: Bone marrow cell exhaustion
  damage to the small intestine (crypt size and morphology): severe damages to the small intestine

## Cc1c2oc3c(C)ccc(C(=O)N[C@@H]4C(=O)N[C@H](C(C)C)C(=O)N5CCC[C@H]5C(=O)N(C)CC(=O)N(C)[C@@H](C(C)C)C(=O)O[C@@H]4C)c3nc-2c(C(=O)N[C@@H]2C(=O)N[C@H](C(C)C)C(=O)N3CCC[C@H]3C(=O)N(C)CC(=O)N(C)[C@@H](C(C)C)C(=O)O[C@@H]2C)c(N)c1=O [Actinomycin D] (I: T[dV]P[Sar][NMeV] / II: T[dV]P[Sar][NMeV]; ester I:1-I:C, II:1-II:C; linker I:N-II:N via Actinocin(9to1))
[6]; in vivo
  excreted into the urine: 10%
  half-life: about 36 hr
  part of the dose excreted intact into the bile: Half
  passage of the blood-brain barrier: does not pass the blood-brain barrier

## CS(=O)(=O)OCCCCOS(C)(=O)=O [Busulfan, 1,4-butanediol dimethanesulfonate]
[7]; previously untreated chronic myelogenous leukemia
  adults obtaining hematologic remission: Approximately 90%

## O=C(O)CCCc1ccc(N(CCCl)CCCl)cc1 [Chlorambucil, 4-(bis(2-chlorethyl)amino)benzenebutanoic acid]
[6]
  absorption: rapidly and completely absorbed

## N.N.[Cl][Pt][Cl] [Cisplatin]
[6]
  absorption: not absorbed orally

## COc1cccc2c1C(=O)c1c(O)c3c(c(O)c1C2=O)C[C@@](O)(C(C)=O)C[C@@H]3O[C@H]1C[C@H](N)[C@H](O)[C@H](C)O1 [Daunorubicin, 5,12-Naphthacenedione, (8S-cis)-8-acetyl-10-((3-amino-2,3,6-trideoxy-a-L-lyxo-hexanopyranosyl)oxy)-7,8,9,10-tetrahydro-6,8,11-trihydroxy-10-methoxy hydrochloride]
[6]; in vivo
  elimination half-life: about 19 hr
  secreted into the bile: ~40%
[6]
  absorption: poor

## COc1cccc2c1C(=O)c1c(O)c3c(c(O)c1C2=O)C[C@@](O)(C(=O)CO)C[C@@H]3O[C@H]1C[C@H](N)[C@H](O)[C@H](C)O1 [Doxorubicin, 5,12-Naphthacenedione, (8s-cis)-10-((3-amino-2,3,6-trideoxy-a-L-lyxo-hexopyranosyl)oxy)-7,8,9,10-tetrahydro-6,8,11-trihydroxy-8-(hydroxyacetyl)-1-methoxy-hydrochloride]
[6]; in vivo
  elimination half-life: about 30 hr
  excreted into the urine: a few
[6]
  absorption: absorbed poorly

## O=NN(CCCl)C(=O)NC1CCCCC1 [Lomustine, 1-(2-chloro-ethyl)-3-cyclohexyl-1nitrosourea]
[6]; in vivo, iv
  tissue levels: comparable to plasma levels
[6]; in vivo, po
  part of radioactivity excreted as degradation products within 24 hours: about half
[8]
  ionisation: relatively unionized

## N[C@@H](Cc1ccc(N(CCCl)CCCl)cc1)C(=O)O [Melphalan, 4-(bis(2-chloroethyl)amino)-L-phenylalanine]
[7]; multiple myeloma, oral administration
  patients with a favorable response: one third to one half

## CO[C@@]12[C@H](COC(N)=O)C3=C(C(=O)C(C)=C(N)C3=O)N1C[C@@H]1N[C@@H]12 [Mitomycin]
[9]; 30 mg bolus injection
  time required to reduce the serum concentration by 50%: 17 min
[9]; human, in vivo
  dose excreted unchanged in the urine: Approximately 10%

## CC[C@]1(O)C[C@@H]2CN(CCc3c([nH]c4ccccc34)[C@@](C(=O)OC)(c3cc4c(cc3OC)N(C)[C@H]3[C@@](O)(C(=O)OC)[C@H](OC(C)=O)[C@]5(CC)C=CCN6CC[C@]43[C@@H]65)C2)C1 [Vinblastine]
[6]; after intravenous injection
  half-life of disappearance from plasma after distribution, first: approximately 1 hours
  half-life of disappearance from plasma after distribution, second: ~20 h
[6]; in vivo
  excreted into the urine: Approximately 15%
  plasma protein binding: bind to plasma proteins
  recovered in the feces after biliary excretion: about 10%
[6]
  absorption: Unpredictable absorption
  peak concentration in plasma: approximately 0.4 mM

## CC[C@]1(O)C[C@H]2CN(CCc3c([nH]c4ccccc34)[C@@](C(=O)OC)(c3cc4c(cc3OC)N(C=O)[C@H]3[C@@](O)(C(=O)OC)[C@H](OC(C)=O)[C@]5(CC)C=CCN6CC[C@]43[C@@H]65)C2)C1 [Vincristine]
[6]; in vivo
  plasma protein binding: bind to plasma proteins
[6]; multiphasic clearance from the plasma
  terminal half-life: about 24 hours
[6]
  absorption: Unpredictable absorption
  peak concentration in plasma: approximately 0.4 mM

## COc1cccc2c1C(=O)c1c(O)c3c(c(O)c1C2=O)C[C@@](O)([C@H](C)O)C[C@@H]3O[C@H]1C[C@H](N)[C@H](O)[C@H](C)O1 [daunorubicinol]
[6]; in vivo
  half-life: about 27 hr

## Bleomycin
[7]; Hodgkin's Disease and testicular tumors
  time to improvement: ≤ 2 weeks
[7]; squamous cell cancers
  time to improvement: ≤ 3 weeks
[10]; hematopoietic tissue / bone marrow
  tissue concentrations: low concentrations
[10]; skin, lungs, kidneys, peritoneum, lymphatics
  tissue concentrations: high concentrations
[9]; human, in vivo
  administered dose recovered in the urine as active bleomycin: 60% to 70%
[9]; patients with creatinine clearance <35 mL per minute, as creatinine clearance decreases
  plasma or serum terminal elimination half-life: increases exponentially
[9]; patients with creatinine clearance >35 mL per minute
  serum or plasma terminal elimination half-life: approximately 115 minutes

## sodium arsenite [arsenic]
p53 [11]
  Hdm2 expression and p53 localisation: upregulation of Hdm2 and accumulation of p53 in the cytoplasm
  p53 response to genotoxic stress: impaired p53 activation and apoptosis
[1]; mouse, in vivo
  effect of arsenic pretreatment on 5FU-induced tumor suppression: little effect
  effect of arsenic pretreatment on irradiation-induced tumor suppression: little effect
  growth of the implant tumors: did not have any detectable effect
[12]
  duration of pretreatment adequate for optimal protection: 3 days
  protection (body weight): a protection less than 3-day pretreatment; also recorded: no further increase of benefits
MCF10A cells
  reversibility of p53 inhibition: transient and can be completely reversed
  time after arsenic removal until radiation-induced p53 activation is almost completely recovered: 7 days
  time in arsenic-free media until radiation-induced p53 activation is detectable: 5 days
[13]
  day of complete return to untreated level of radiation-induced p53 accumulation and p21 expression: 9 days
  day of partial recovery of radiation-induced p53 accumulation and p21 expression: 7 days
  radiation-induced p53 accumulation and p21 expression: suppressed
  reversibility of p53 suppression: temporary and reversible
[2]; mouse, in vivo
  effect of arsenic pretreatment on 5FU-induced tumor suppression: little effect
[3]; mouse, in vivo
  effect of arsenic pretreatment on 5FU-induced tumor suppression: little effect
  growth of the implanted tumors: did not have any detectable effect
p53 [14]
  protection against therapy-induced toxicity: little protection
[15]
  p53-dependent tissue damages induced by 5FU: significantly blunted
[4]
  body weight: little loss of body weight
  damage to small intestine and bone marrow cells after arsenic pretreatment: significantly inhibited
  therapy-induced body weight loss after arsenic pretreatment: effectively prevented
[16]
  5FU-induced body weight loss after arsenic pretreatment: almost completely prevented
[5]
  5FU-induced body weight loss after arsenic pretreatment: almost completely prevented
  5FU-induced decrease of bone marrow cellularity after arsenic pretreatment: considerably alleviated
  5FU-induced small intestine damage after arsenic pretreatment: significantly ameliorated
  body weight: little loss of body weight
[17]
  cell proliferation (with enhanced NF-κB and AP-1 activity): induced proliferation
  cell viability: statistically significant decrease of cell viability
